Experimental data: patent US4215043A, “Bicyclomycin derivatives” (Fujisawa Pharmaceutical Co., Ltd., priority 1975, dated 1980)

System: Escherichia coli strain 1075
Assay: Protecting effect in experimental mice infections (E. coli strain 1075)
Format: in vivo
Conditions: sc, 120 h, female albino mice 8 g-24 g, infected intraperitoneally with E. coli strain 1075, treated subcutaneously, survival on 5th day after infection, highest dosage tested usually 300 mg/kg
Procedure: Protecting Effect in Experimental Mice Infections:
For a reference's sake, with regard to antimicrobial activity of the typical compound which falls within the category of the compounds of the formula (I) of the present invention, there are illustrated in vivo tests in which active ingredient are the following compounds.
The test compound against in vivo against the species Escherichia coli was tested using female albino mice weighing 8 g-24 g.
The mice were infected by intraperitoneal route with standardized suitable diluted bacterial suspensions of E. coli strain 1075 and then treated subcutaneously with the test compound.
The ED50 (mg/kg) was determined from the numbers of mice surviving on the 5th day after infection. The highest dosage tested was usually 300 mg/kg.

In the case of `C=C1CCOC2(C(O)C3(C)COC(C)(C)O3)NC(=O)C1(O)NC2=O` (centres unmarked) [Compound 1, 2',3'-O,O-isopropylidenebicyclomycin], the ED50 is reported as 65 mg/kg.
Compound `CC(O)(CO)C(O)C12NC(=O)C(O)(NC1=O)C(Br)(CBr)CCO2` (centres unmarked) [Compound 2, 5,11-dibromo-5,11-dihydrobicyclomycin] has an ED50 of 60 mg/kg.
